Test results as given in publication PMC9226319, “Peripherally restricted transthyretin-based delivery system for probes and therapeutics avoiding opioid-related side effects” (Nature Communications, 2022).
“And” between values parts separate entries of the source, which are not always exact repeats. Equal values may be shown once. “Also recorded” adds a separate entry of the source. Read-outs that look alike come from different tables or passages of the source.

Legend:
[1] = Serum stability assay of AG10-L2-Nal, mouse serum; type: in vitro ADME; conditions: 100 µM
Method: (§1) AG10-L2-Nal (100 μM) was incubated in sera, and the concentration remaining in respective media was determined at 0 and 48 h using HPLC. Bar graphs represent the mean of % compound remaining ± s.d. […] The plasma, brain tissue, and CSF were collected at 30 min after dosing. The ratio of the brain (ng/g) versus plasma concentration (ng/mL) is expressed as the percentage brain to plasma ratio. The ratio of the CSF (ng/mL) versus plasma concentration (ng/mL) is expressed as the percentage CSF to plasma ratio. Bar graphs show the respective mean (±s.d.) (n = 3 for each group). […] The concentration of the test compounds in plasma was determined at different time points and expressed as means ± s.d. of three biological replicates. Source data are provided as a Source Data file. […]
(§2) (Taiwan). The experimental procedure was performed as reported12. […]
(§3) Serum stability assay of AG10-L2-Nal. […] 100 μL samples were analyzed at 0 h, 24 h, and 48 h time intervals. […] The supernatant was analyzed using Waters™ XBridge C18 column (4.6x250 mm, 5μm) on Waters e2695 separations module HPLC system connected to a Waters 2998 photodiode array detector operating between the UV ranges of 200-400 nm. […]

in vivo [2] = conditions: male, Sprague Dawley, rat, iv
male Sprague-Dawley rats [3] = assay: Gastrointestinal (GI) transit (charcoal meal) assays; type: in vivo, rat; conditions: rat, in vivo
[4] = biological target: human mu-opioid receptors (Homo sapiens, UniProt P35372); assay: biochemical; type: binding
Chain of human mu-opioid receptors (P35372 whole entry): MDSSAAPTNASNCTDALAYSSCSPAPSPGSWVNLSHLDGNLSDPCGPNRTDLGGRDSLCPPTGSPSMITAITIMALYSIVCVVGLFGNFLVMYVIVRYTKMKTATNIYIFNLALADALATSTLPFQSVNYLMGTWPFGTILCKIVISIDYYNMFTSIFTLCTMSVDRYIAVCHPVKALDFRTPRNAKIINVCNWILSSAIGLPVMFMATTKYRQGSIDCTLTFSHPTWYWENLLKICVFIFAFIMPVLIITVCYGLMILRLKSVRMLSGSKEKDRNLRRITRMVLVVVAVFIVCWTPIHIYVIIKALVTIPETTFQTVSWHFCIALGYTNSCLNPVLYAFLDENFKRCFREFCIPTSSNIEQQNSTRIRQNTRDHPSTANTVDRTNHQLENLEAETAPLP

male Sprague-Dawley rats [5] = conditions: rat, in vivo
[6] = biological target: T1, kappa opioid receptor (rat) (Rattus norvegicus, UniProt P34975); assay: Rat kappa-opioid receptor (agonist radioligand [3H] U 69593) binding assay; conditions: for % Inhibition of Control Specific Binding: kappa-opioid receptor binding, replicates 1st/2nd
T1 construct: Eurofins Cerep (France)
T1 sequence (P34975 whole entry): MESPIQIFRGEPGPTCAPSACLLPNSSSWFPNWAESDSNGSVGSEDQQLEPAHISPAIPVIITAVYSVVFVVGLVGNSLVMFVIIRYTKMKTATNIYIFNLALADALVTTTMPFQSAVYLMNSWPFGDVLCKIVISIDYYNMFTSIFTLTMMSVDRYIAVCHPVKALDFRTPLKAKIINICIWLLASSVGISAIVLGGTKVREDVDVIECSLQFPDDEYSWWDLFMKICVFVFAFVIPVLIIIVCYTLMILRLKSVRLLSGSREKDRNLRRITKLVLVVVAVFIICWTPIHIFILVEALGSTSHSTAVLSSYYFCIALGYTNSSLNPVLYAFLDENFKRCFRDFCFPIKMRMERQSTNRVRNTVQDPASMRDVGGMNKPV

[7] = biological target: T2, delta-opioid receptor (human) (Homo sapiens, UniProt P41143); assay: Human delta-opioid receptor (agonist radioligand [3H]-DADLE) binding assay; conditions: for % Inhibition of Control Specific Binding: delta-opioid receptor binding, replicates 1st/2nd
T2 construct: Eurofins Cerep (France)
T2 sequence (P41143 whole entry): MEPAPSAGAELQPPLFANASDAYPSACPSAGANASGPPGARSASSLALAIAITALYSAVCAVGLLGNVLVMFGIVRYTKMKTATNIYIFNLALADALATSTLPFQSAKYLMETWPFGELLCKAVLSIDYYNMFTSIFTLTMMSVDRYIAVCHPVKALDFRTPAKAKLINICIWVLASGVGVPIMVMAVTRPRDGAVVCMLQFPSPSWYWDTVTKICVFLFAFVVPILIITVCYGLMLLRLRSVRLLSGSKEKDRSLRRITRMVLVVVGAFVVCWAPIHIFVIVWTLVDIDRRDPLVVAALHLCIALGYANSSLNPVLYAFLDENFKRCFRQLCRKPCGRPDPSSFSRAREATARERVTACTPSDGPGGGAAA

[8] = Long-term stability assay of AG10-L2-Nal in PBS buffer; type: physicochemical; conditions: 100 µM, 37 °C, analysed weekly for four weeks
in vivo [9] = conditions: male, Sprague Dawley, rat, sc
[10] = Serum stability assay of AG10-L2-Nal, human serum; type: in vitro ADME; conditions: 100 µM
Method: as §1, §2, §3

TTR in human serum = TTR in human serum (Homo sapiens, UniProt P02766); assay: TTR serum fluorescent probe exclusion (FPE) selectivity assay; type: binding; conditions: ligand 10 µM; for %FPE probe fluorescence: human serum, replicates

Structure (SMILES): C=CCN1CC[C@]23c4c5ccc(O)c4O[C@H]2[C@@H](OCc2cn(CCNCCCCCCOc4cc(OCCCc6c(C)n[nH]c6C)cc(C(=O)O)c4)nn2)CC[C@@]3(O)[C@H]1C5 [AG10-L2-Nal]
- % compound remaining in mouse serum ([1]; 0 h, replicates): 98.29% and 100.51% and 101.20%
- % compound remaining in mouse serum ([1]; 37 °C, 48 h, table replicates): 100% and 99.98% and 100.20% and 102.73%
- AUC(0-inf) (in vivo [2]; 4.84 umol/kg): 16.9 ± 1.09 µM·h
- Vd (in vivo [2]; 4.84 umol/kg): 0.12 ± 0.02 L/kg
- clearance (in vivo [2]; 4.84 umol/kg): 4.83 mL/min/kg
- half-life (in vivo [2]; 4.84 umol/kg): 5.98 ± 0.81 h
- concentration at 0.03 h (in vivo [2]; 4.84 µmol/kg, plasma concentration, IV 4.84 µmol/kg, 0.03 h, individual animals): 48800 nM
- concentration at 1 h (in vivo [2]; 4.84 µmol/kg, plasma concentration, IV 4.84 µmol/kg, 1 h, individual animals): 295 nM
- concentration at 2 h (in vivo [2]; 4.84 µmol/kg, plasma concentration, IV 4.84 µmol/kg, 2 h, individual animals): 234 nM
- concentration at 12 h (in vivo [2]; 4.84 µmol/kg, plasma concentration, IV 4.84 µmol/kg, 12 h, individual animals): 9.6 nM
- GI transit 2.5h as % of saline group (male Sprague-Dawley rats [3]): 45.3% and 46.0% and 49.8% and 55.5% and 53.6% and 48.3%
- reversal of OIC in the presence of AG10 (male Sprague-Dawley rats [3]): no improvement in the OIC
- GI transit as % of vehicle group, compound alone (male Sprague-Dawley rats [3]; sc): 95.27% and 87.87% and 102.14% and 105.69% and 102.69%
- % Inhibition of Control Specific Binding [4]: 88.5%
- fold better mu-opioid receptor binding affinity than MNTX [4]: 17 fold
- fold higher mu-opioid receptor binding affinity than AG10-L1-Nal [4]: 5.7 fold
- Ki ([4]; binding affinity to mu-opioid receptor (Ki)): 350 pM
- Ki ([4]; binding affinity to mu-opioid receptor (Ki) in the presence of TTR): 1300 pM
- plasma concentration (male Sprague-Dawley rats [5]; male, Sprague-Dawley): 7600 ± 500 nM
- Hot plate latency (male Sprague-Dawley rats [5]): 60 s
- hot plate latency (male Sprague-Dawley rats [5]): significant analgesia
- reversal of morphine-induced analgesia in the presence of AG10 (male Sprague-Dawley rats [5]): no reversal of analgesia
- hot plate latency (male Sprague-Dawley rats [5]; iv): 60 s
- Ki ([6]; [3H] U 69593 displacement, read-out: binding affinity to kappa-opioid receptor (Ki)): 120 pM
- % Inhibition of Control Specific Binding ([6]; 1.0E-07 M): 98.2% and 98.6%
- % Inhibition of Control Specific Binding ([6]; 1.0E-08 M): 96.0%
- % Inhibition of Control Specific Binding ([6]; 1.0E-09 M): 83.2% and 82.8%
- % Inhibition of Control Specific Binding ([6]; 1.0E-10 M): 41.5% and 28.1%
- % Inhibition of Control Specific Binding ([6]; 5.0E-08 M): 98.3% and 97.6%
- Ki ([7]; [3H]-DADLE displacement, read-out: binding affinity to delta-opioid receptor (Ki)): 5500 pM
- % Inhibition of Control Specific Binding ([7]; 1.0E-07 M): 91.6% and 94.2%
- % Inhibition of Control Specific Binding ([7]; 1.0E-08 M): 53.9% and 52.4%
- % Inhibition of Control Specific Binding ([7]; 1.0E-09 M): 14.6% and 12.2%
- % Inhibition of Control Specific Binding ([7]; 1.0E-10 M): 2.7% and 9.1%
- % Inhibition of Control Specific Binding ([7]; 5.0E-08 M): 83.7% and 87.4%
- chemical stability in PBS buffer [8]: stable in buffer for a least one month; also recorded: chemically stable in phosphate buffer saline for at least one month at 37 °C
- AUC(0-inf) (in vivo [9]; 16 umol/kg): 17.6 ± 2.54 µM·h
- CL/F (in vivo [9]; 16 umol/kg): 15.3 mL/min/kg
- Vd/F (in vivo [9]; 16 umol/kg): 4.89 ± 1.83 L/kg
- half-life (in vivo [9]; 16 umol/kg): 3.62 ± 0.76 h
- concentration at 0.25 h (in vivo [9]; 16 µmol/kg, plasma concentration, SC 16 µmol/kg, 0.25 h, individual animals): 7560 nM
- concentration at 0.5 h (in vivo [9]; 16 µmol/kg, plasma concentration, SC 16 µmol/kg, 0.5 h, individual animals): 4680 nM
- concentration at 0.75 h (in vivo [9]; 16 µmol/kg, plasma concentration, SC 16 µmol/kg, 0.75 h, individual animals): 4580 nM
- concentration at 1 h (in vivo [9]; 16 µmol/kg, plasma concentration, SC 16 µmol/kg, 1 h, individual animals): 4240 nM
- concentration at 2 h (in vivo [9]; 16 µmol/kg, plasma concentration, SC 16 µmol/kg, 2 h, individual animals): 2370 nM
- concentration at 4 h (in vivo [9]; 16 µmol/kg, plasma concentration, SC 16 µmol/kg, 4 h, individual animals): 1470 nM
- concentration at 6 h (in vivo [9]; 16 µmol/kg, plasma concentration, SC 16 µmol/kg, 6 h, individual animals): 1050 nM
- concentration at 8 h (in vivo [9]; 16 µmol/kg, plasma concentration, SC 16 µmol/kg, 8 h, individual animals): 727 nM
- concentration at 24 h (in vivo [9]; 16 µmol/kg, plasma concentration, SC 16 µmol/kg, 24 h, individual animals): 40.6 nM
- % compound remaining in human serum ([10]; 0 h, replicates): 101.76% and 98.77% and 99.47%
- % compound remaining in human serum ([10]; 37 °C, 48 h, table replicates): 100% and 100.03% and 100.96% and 96.87%
- % TTR occupancy in human serum (TTR in human serum; FPE probe 3.6 µM, 3 h reading relative to probe alone, text mean ± s.d., table replicates): 62.5 ± 1.1% and 62.04% and 62.07% and 64.05% and 61.92%
- %FPE probe fluorescence (TTR in human serum; time 0.000 h): 0.000%
- %FPE probe fluorescence (TTR in human serum; time 0.083 h): 0.018% and 0.756% and -2.232% and -2.399%
- %FPE probe fluorescence (TTR in human serum; time 0.250 h): -1.158% and 2.209% and 1.458% and -0.885%
- %FPE probe fluorescence (TTR in human serum; time 0.500 h): 4.241% and 3.528% and 5.089% and 2.218%
- %FPE probe fluorescence (TTR in human serum; time 1.000 h): 6.503% and 10.611% and 13.590% and 14.148%
- %FPE probe fluorescence (TTR in human serum; time 1.250 h): 9.009% and 13.005% and 15.989% and 16.127%
- %FPE probe fluorescence (TTR in human serum; time 1.500 h): 13.314% and 18.863% and 18.262% and 17.288%
- %FPE probe fluorescence (TTR in human serum; time 1.750 h): 17.598% and 21.285% and 22.377% and 21.648%
- %FPE probe fluorescence (TTR in human serum; time 2.000 h): 21.919% and 25.680% and 23.861% and 25.075%
- %FPE probe fluorescence (TTR in human serum; time 2.250 h): 26.163% and 28.876% and 26.928% and 27.418%
- %FPE probe fluorescence (TTR in human serum; time 2.500 h): 26.877% and 32.466% and 29.919% and 30.633%
- %FPE probe fluorescence (TTR in human serum; time 2.750 h): 34.129% and 34.947% and 31.920% and 33.937%
- %FPE probe fluorescence (TTR in human serum; time 3.000 h): 37.964% and 37.926% and 35.954% and 38.083%
- %FPE probe fluorescence (TTR in human serum; time 3.500 h): 44.335% and 44.718% and 41.995% and 45.800%
- %FPE probe fluorescence (TTR in human serum; time 3.750 h): 47.041% and 46.124% and 44.395% and 46.344%
- %FPE probe fluorescence (TTR in human serum; time 4.000 h): 49.775% and 49.574% and 47.863% and 50.648%
- %FPE probe fluorescence (TTR in human serum; time 4.250 h): 49.252% and 50.428% and 49.751% and 51.967%
- %FPE probe fluorescence (TTR in human serum; time 4.500 h): 53.631% and 53.865% and 52.939% and 52.730%
- %FPE probe fluorescence (TTR in human serum; time 4.750 h): 56.220% and 54.908% and 55.174% and 55.874%
- %FPE probe fluorescence (TTR in human serum; time 5.000 h): 57.139% and 56.055% and 53.820% and 57.315%
- %FPE probe fluorescence (TTR in human serum; time 5.250 h): 59.200% and 60.014% and 56.004% and 59.143%
- %FPE probe fluorescence (TTR in human serum; time 5.500 h): 60.336% and 59.246% and 59.233% and 60.795%
- %FPE probe fluorescence (TTR in human serum; time 5.750 h): 61.971% and 60.994% and 58.022% and 62.173%
- %FPE probe fluorescence (TTR in human serum; time 6.000 h): 64.344% and 63.419% and 61.650% and 63.934%
